In ChEMBL document CHEMBL3751713, “Synthesis and Biological Activity of Mono- and Di-N-acylated Aminoglycosides” (ACS Med Chem Lett, 2015):
≈ marks a conversion by molar mass, not a printed value.

Experiments:
[1] = Drug metabolism assessed as Staphylococcus aureus Bifunctional AAC(6')-1e/APH(2'')-1a mediated compound modification at 100 uM; type: ADME
[2] = Drug metabolism assessed as Escherichia coli AAC(3)-IV mediated compound modification at 100 uM; type: ADME
Listeria monocytogenes = assay: Antimicrobial activity against Gram-positive Listeria monocytogenes ATCC 19115 after 16 to 24 hrs by micro-dilution method; type: functional
[3] = Drug metabolism assessed as Mycobacterium tuberculosis Eis mediated compound modification at 100 uM; type: ADME
Bacillus subtilis = assay: Antimicrobial activity against Gram-positive Bacillus subtilis 168 after 16 to 24 hrs by micro-dilution method; type: functional
Bacillus cereus = assay: Antimicrobial activity against Gram-positive Bacillus cereus ATCC 17788 after 16 to 24 hrs by micro-dilution method; type: functional
Haemophilus influenzae = assay: Antimicrobial activity against Gram-negative Haemophilus influenzae ATCC 51907 after 16 to 24 hrs by micro-dilution method; type: functional
Staphylococcus aureus [4] = assay: Antimicrobial activity against Gram-positive Staphylococcus aureus ATCC 29213 after 16 to 24 hrs by micro-dilution method; type: functional
Bacillus anthracis [5] = assay: Antimicrobial activity against Gram-positive Bacillus anthracis str. Sterne after 16 to 24 hrs by micro-dilution method; type: functional
Staphylococcus aureus [6] = assay: Antimicrobial activity against Gram-positive methicillin-resistant Staphylococcus aureus 2 after 16 to 24 hrs by micro-dilution method; type: functional
[7] = test system: Mycolicibacterium smegmatis; assay: Antimicrobial activity against Mycobacterium smegmatis MC2-155 after 16 to 24 hrs by micro-dilution method; type: functional; settings: str. MC2 155
Staphylococcus aureus [8] = assay: Antimicrobial activity against Gram-positive methicillin-resistant Staphylococcus aureus 1 after 16 to 24 hrs by micro-dilution method; type: functional
Pseudomonas aeruginosa = assay: Antimicrobial activity against Gram-negative Pseudomonas aeruginosa PAO1 after 16 to 24 hrs by micro-dilution method; type: functional
Bacillus anthracis [9] = assay: Potency index, ratio MIC of kanamycin to MIC of compound for Bacillus anthracis str. Sterne; type: functional
[10] = test system: Mycolicibacterium smegmatis; assay: Potency index, ratio MIC of tobramycin to MIC of compound for Mycobacterium smegmatis MC2-155; type: functional, str. MC2 155
Bacillus anthracis [11] = assay: Potency index, ratio MIC of tobramycin to MIC of compound for Bacillus anthracis str. Sterne; type: functional
[12] = molecular target: T1, Aminoglycoside 3'-phosphotransferase (Escherichia coli, UniProt P00551); assay: Drug metabolism assessed as Escherichia coli APH(3')-Ia-mediated compound modification at 100 uM; type: ADME
T1 sequence (P00551 whole entry): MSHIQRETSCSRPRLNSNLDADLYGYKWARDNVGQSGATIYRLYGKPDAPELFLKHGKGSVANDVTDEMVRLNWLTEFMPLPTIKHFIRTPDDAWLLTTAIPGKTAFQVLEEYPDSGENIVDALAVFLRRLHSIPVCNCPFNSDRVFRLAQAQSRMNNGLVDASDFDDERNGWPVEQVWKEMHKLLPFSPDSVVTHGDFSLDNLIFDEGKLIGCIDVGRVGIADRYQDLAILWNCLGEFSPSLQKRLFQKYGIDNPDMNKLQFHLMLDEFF

| Compound | Drug metabolism [1] | Drug metabolism [2] | MIC (Listeria monocytogenes) | Drug metabolism [3] | MIC (Bacillus subtilis) | MIC (Bacillus cereus) | MIC (Haemophilus influenzae) | MIC (Staphylococcus aureus [4]) | MIC (Bacillus anthracis [5]) | MIC (Staphylococcus aureus [6]) | MIC [7] | MIC (Staphylococcus aureus [8]) | MIC (Pseudomonas aeruginosa) | Ratio (Bacillus anthracis [9]) | Ratio [10] | Ratio (Bacillus anthracis [11]) | Drug metabolism [12] |
| --- | --- | --- | --- | --- | --- | --- | --- | --- | --- | --- | --- | --- | --- | --- | --- | --- | --- |
| NCC(=O)NC[C@H]1O[C@H](O[C@H]2[C@H](O)[C@@H](O[C@H]3O[C@H](CO)[C@@H](O)[C@H](N)[C@H]3O)[C@H](N)C[C@@H]2N)[C@H](O)[C@@H](O)[C@@H]1O | metabolite_detected | metabolite_detected | 150 µg/mL (≈ 277 µM) | metabolite_detected | > 150 µg/mL | 150 µg/mL (≈ 277 µM) | 150 µg/mL (≈ 277 µM) | 16 µg/mL (≈ 29.5 µM) | 2 µg/mL (≈ 3.69 µM) | > 128 µg/mL | > 128 µg/mL | > 128 µg/mL | > 150 µg/mL | 64 | – | – | – |
| NCC[C@H](O)C(=O)NC[C@H]1O[C@H](O[C@H]2[C@H](O)[C@@H](O[C@H]3O[C@H](CO)[C@@H](O)[C@H](N)[C@H]3O)[C@H](N)C[C@@H]2N)[C@H](N)C[C@@H]1O | metabolite_detected | metabolite_detected | > 150 µg/mL | metabolite_detected | > 150 µg/mL | > 150 µg/mL | > 150 µg/mL | 8 µg/mL (≈ 14.1 µM) | 2 µg/mL (≈ 3.52 µM) | > 128 µg/mL | 8 µg/mL (≈ 14.1 µM) | 16 µg/mL (≈ 28.1 µM) | > 150 µg/mL | – | >=16 | 32 | metabolite_notdetected |
| CCN[C@@H]1C[C@H](N)[C@@H](O[C@H]2OC(CNC(=O)CN)=CC[C@H]2N)[C@H](O)[C@H]1O[C@H]1OC[C@](C)(O)[C@H](NC)[C@H]1O | metabolite_detected | metabolite_detected | 18.8 µg/mL (≈ 35.3 µM) | metabolite_detected | 37.5 µg/mL (≈ 70.4 µM) | 75 µg/mL (≈ 141 µM) | 37.5 µg/mL (≈ 70.4 µM) | 0.5 µg/mL (≈ 0.939 µM) | 0.5 µg/mL (≈ 0.939 µM) | 1 µg/mL (≈ 1.88 µM) | 1 µg/mL (≈ 1.88 µM) | 32 µg/mL (≈ 60.1 µM) | 37.5 µg/mL (≈ 70.4 µM) | – | – | – | metabolite_notdetected |
| NCC(=O)NC[C@H]1O[C@H](O[C@H]2[C@H](O)[C@@H](O[C@H]3O[C@H](CO)[C@@H](O)[C@H](N)[C@H]3O)[C@H](N)C[C@@H]2N)[C@H](N)C[C@@H]1O | metabolite_detected | metabolite_detected | 18.8 µg/mL (≈ 35.8 µM) | metabolite_detected | 75 µg/mL (≈ 143 µM) | 18.8 µg/mL (≈ 35.8 µM) | 75 µg/mL (≈ 143 µM) | 8 µg/mL (≈ 15.3 µM) | 0.5 µg/mL (≈ 0.953 µM) | 128 µg/mL (≈ 244 µM) | 4 µg/mL (≈ 7.63 µM) | 4 µg/mL (≈ 7.63 µM) | 18.8 µg/mL (≈ 35.8 µM) | – | >=32 | 128 | metabolite_notdetected |
| NCC[C@H](O)C(=O)NC[C@H]1O[C@H](O[C@H]2[C@H](O)[C@@H](O[C@H]3O[C@H](CO)[C@@H](O)[C@H](N)[C@H]3O)[C@H](N)C[C@@H]2N)[C@H](O)[C@@H](O)[C@@H]1O | metabolite_detected | metabolite_detected | > 150 µg/mL | metabolite_detected | > 150 µg/mL | > 150 µg/mL | > 150 µg/mL | 32 µg/mL (≈ 54.6 µM) | 4 µg/mL (≈ 6.83 µM) | > 128 µg/mL | 2 µg/mL (≈ 3.42 µM) | 32 µg/mL (≈ 54.6 µM) | 150 µg/mL (≈ 256 µM) | 32 | – | – | – |
| CN[C@@H]1[C@@H](O)[C@@H](O[C@@H]2[C@@H](O)[C@H](O[C@H]3OC(CNC(=O)CN)=CC[C@H]3N)[C@@H](N)C[C@H]2N)OC[C@]1(C)O | metabolite_detected | metabolite_detected | 18.8 µg/mL (≈ 37.3 µM) | metabolite_detected | 37.5 µg/mL (≈ 74.3 µM) | 75 µg/mL (≈ 149 µM) | 37.5 µg/mL (≈ 74.3 µM) | 1 µg/mL (≈ 1.98 µM) | ≤ 0.25 µg/mL | 2 µg/mL (≈ 3.96 µM) | 0.5 µg/mL (≈ 0.991 µM) | 8 µg/mL (≈ 15.9 µM) | 18.8 µg/mL (≈ 37.3 µM) | – | – | – | metabolite_notdetected |
| NCC[C@@H](O)C(=O)NC[C@H]1O[C@H](O[C@@H]2[C@@H](O)[C@H](O[C@@H]3O[C@@H](CO)[C@H](O)[C@@H](N)[C@@H]3O)[C@@H](NC(=O)[C@@H](O)CCN)C[C@H]2N)[C@H](O)[C@@H](O)[C@@H]1O (stereo in doubt) | metabolite_detected | metabolite_detected | 150 µg/mL (≈ 218 µM) | metabolite_detected | > 150 µg/mL | 150 µg/mL (≈ 218 µM) | > 150 µg/mL | 128 µg/mL (≈ 186 µM) | > 128 µg/mL | > 128 µg/mL | 8 µg/mL (≈ 11.6 µM) | > 128 µg/mL | 75 µg/mL (≈ 109 µM) | – | – | – | metabolite_notdetected |
| NCC(=O)NCC[C@H](O)C(=O)N[C@H]1C[C@@H](N)[C@H](O[C@H]2O[C@H](CNC(=O)CN)[C@@H](O)[C@H](O)[C@H]2O)[C@@H](O)[C@@H]1O[C@H]1O[C@H](CO)[C@@H](O)[C@H](N)[C@H]1O (stereo in doubt) | metabolite_detected | metabolite_detected | > 150 µg/mL | metabolite_detected | > 150 µg/mL | > 150 µg/mL | > 150 µg/mL | > 128 µg/mL | > 128 µg/mL | > 128 µg/mL | 64 µg/mL (≈ 91.5 µM) | > 128 µg/mL | > 150 µg/mL | – | – | – | metabolite_notdetected |
| N[C@H]1[C@H](O)[C@H](O[C@@H]2[C@@H](O)[C@H](O[C@@H]3O[C@@H](CNC(=O)OCc4ccccc4)[C@H](O)C[C@@H]3N)[C@@H](N)C[C@H]2N)O[C@@H](CO)[C@@H]1O (stereo in doubt) | metabolite_detected | metabolite_detected | > 150 µg/mL | metabolite_detected | > 150 µg/mL | > 150 µg/mL | 75 µg/mL (≈ 125 µM) | 128 µg/mL (≈ 213 µM) | 64 µg/mL (≈ 106 µM) | > 128 µg/mL | 16 µg/mL (≈ 26.6 µM) | > 128 µg/mL | > 150 µg/mL | – | – | – | metabolite_notdetected |
| NCC[C@H](O)C(=O)N[C@@H]1C[C@H](N)[C@@H](O[C@H]2O[C@H](CN)[C@@H](O)[C@H](O)[C@H]2O)[C@H](O)[C@H]1O[C@H]1O[C@H](CO)[C@@H](O)[C@H](N)[C@H]1O [AMIKACIN] | – | – | 9.4 µg/mL (≈ 16.1 µM) | – | 37.5 µg/mL (≈ 64 µM) | 9.4 µg/mL (≈ 16.1 µM) | 37.5 µg/mL (≈ 64 µM) | 1 µg/mL (≈ 1.71 µM) | 16 µg/mL (≈ 27.3 µM) | 32 µg/mL (≈ 54.6 µM) | ≤ 0.25 µg/mL | 0.5 µg/mL (≈ 0.854 µM) | 2.3 µg/mL (≈ 3.93 µM) | – | – | – | – |
| NC[C@H]1O[C@H](O[C@H]2[C@H](O)[C@@H](O[C@H]3O[C@H](CO)[C@@H](O)[C@H](N)[C@H]3O)[C@H](N)C[C@@H]2N)[C@H](O)[C@@H](O)[C@@H]1O [KANAMYCIN] | – | – | 4.7 µg/mL (≈ 9.7 µM) | – | > 150 µg/mL | 9.4 µg/mL (≈ 19.4 µM) | 9.4 µg/mL (≈ 19.4 µM) | 0.5 µg/mL (≈ 1.03 µM) | > 128 µg/mL | > 128 µg/mL | > 128 µg/mL | > 128 µg/mL | 37.5 µg/mL (≈ 77.4 µM) | – | – | – | – |
| CCN[C@@H]1C[C@H](N)[C@@H](O[C@H]2OC(CN)=CC[C@H]2N)[C@H](O)[C@H]1O[C@H]1OC[C@](C)(O)[C@H](NC)[C@H]1O [NETILMICIN] | – | – | 2.3 µg/mL (≈ 4.84 µM) | – | 4.7 µg/mL (≈ 9.88 µM) | 4.7 µg/mL (≈ 9.88 µM) | 2.3 µg/mL (≈ 4.84 µM) | ≤ 0.25 µg/mL | ≤ 0.25 µg/mL | ≤ 0.25 µg/mL | ≤ 0.25 µg/mL | ≤ 0.25 µg/mL | 2.3 µg/mL (≈ 4.84 µM) | – | – | – | – |
| CN[C@@H]1[C@@H](O)[C@@H](O[C@@H]2[C@@H](O)[C@H](O[C@H]3OC(CN)=CC[C@H]3N)[C@@H](N)C[C@H]2N)OC[C@]1(C)O [SISOMICIN] | – | – | 2.3 µg/mL (≈ 5.14 µM) | – | 4.7 µg/mL (≈ 10.5 µM) | 9.4 µg/mL (≈ 21 µM) | 4.7 µg/mL (≈ 10.5 µM) | ≤ 0.25 µg/mL | ≤ 0.25 µg/mL | ≤ 0.25 µg/mL | ≤ 0.25 µg/mL | ≤ 0.25 µg/mL | 1.2 µg/mL (≈ 2.68 µM) | – | – | – | – |
| NC[C@H]1O[C@H](O[C@H]2[C@H](O)[C@@H](O[C@H]3O[C@H](CO)[C@@H](O)[C@H](N)[C@H]3O)[C@H](N)C[C@@H]2N)[C@H](N)C[C@@H]1O [TOBRAMYCIN] | – | – | 2.3 µg/mL (≈ 4.92 µM) | – | 9.4 µg/mL (≈ 20.1 µM) | 9.4 µg/mL (≈ 20.1 µM) | 4.7 µg/mL (≈ 10.1 µM) | 0.5 µg/mL (≈ 1.07 µM) | > 128 µg/mL | > 128 µg/mL | ≥ 128 µg/mL | ≤ 0.25 µg/mL | 0.6 µg/mL (≈ 1.28 µM) | – | – | – | – |
